Assay [1] addresses T1, human V1a receptor (Homo sapiens, UniProt P37288).
T1 construct: expressed in transfected cells; host or cells: CHO K1 (ATCC), also stably transfected with a modified aequorin
Nature of the assay: Cellular in vitro assay for determining vasopressin receptor activity, V1a receptor cell line (CHO, aequorin luminescence). Type of assay: cell-based. The conditions noted are these: for pIC50: CHO cell line transfected with human V1a receptor, [Arg]-vasopressin at EC50 concentration, read-out: IC50 hV1a; for ratio IC50 hV2/hV1a: selectivity ratio IC50 hV2 / IC50 hV1a. Summed up: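 Luminescence from reconstituted aequorin, reporting intracellular calcium release, was measured immediately after adding [Arg]-vasopressin at EC50 concentration to CHO K1 cells pretreated 10 minutes with graded compound concentrations. Inhibition gave IC50 values.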

Assay [2] has as its target T2, human V2 receptor (Homo sapiens, UniProt P30518).
T2 construct: expressed in transfected cells; host or cells: CHO K1 (ATCC) expressing firefly luciferase under a CRE-responsive promoter
Briefly: Cellular in vitro assay for determining vasopressin receptor activity, V2 receptor cell line (CHO, CRE-luciferase). Type of assay: cell-based. To be noted: CHO cell line transfected with human V2 receptor; [Arg8]-vasopressin at EC50 concentration, 3 hours; read-out: IC50 hV2.

pIC50: −log10 of the molar value.

T2 sequence (P30518 whole entry): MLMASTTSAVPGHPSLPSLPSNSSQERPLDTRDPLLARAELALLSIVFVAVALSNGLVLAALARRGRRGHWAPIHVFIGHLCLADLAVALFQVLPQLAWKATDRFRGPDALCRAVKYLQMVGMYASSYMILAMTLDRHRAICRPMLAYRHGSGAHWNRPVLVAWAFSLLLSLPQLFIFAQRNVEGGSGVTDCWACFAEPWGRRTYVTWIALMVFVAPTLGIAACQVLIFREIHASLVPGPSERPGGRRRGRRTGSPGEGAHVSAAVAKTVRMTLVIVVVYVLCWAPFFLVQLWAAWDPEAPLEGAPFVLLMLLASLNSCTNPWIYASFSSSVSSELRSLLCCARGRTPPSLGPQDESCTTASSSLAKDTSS
T1 sequence (P37288 whole entry): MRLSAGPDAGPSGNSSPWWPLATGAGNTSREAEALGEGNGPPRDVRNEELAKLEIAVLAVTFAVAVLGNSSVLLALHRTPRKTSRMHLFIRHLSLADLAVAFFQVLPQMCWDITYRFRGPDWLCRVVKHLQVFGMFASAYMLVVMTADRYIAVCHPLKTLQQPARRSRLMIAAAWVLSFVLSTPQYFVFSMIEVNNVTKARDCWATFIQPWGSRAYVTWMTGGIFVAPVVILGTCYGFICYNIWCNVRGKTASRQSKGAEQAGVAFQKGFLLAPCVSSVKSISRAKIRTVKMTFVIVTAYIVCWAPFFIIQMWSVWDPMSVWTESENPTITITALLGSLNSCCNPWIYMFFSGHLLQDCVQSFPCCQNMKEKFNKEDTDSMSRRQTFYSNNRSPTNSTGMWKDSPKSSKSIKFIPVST

As to `O=C(Nc1ncccc1-n1cnc(Cn2nc(-c3ccc(Cl)cc3)n(C[C@H](O)C(F)(F)F)c2=O)n1)c1cnccn1` [Example 104], in assay [1], the pIC50 was 8.08 and the “ratio IC50 hV2/hV1a” value is listed as 193.9. The pIC50 in assay [2] is 5.80.

With `O=C(CC1CCCCC1)Nc1ncccc1-n1cnc(Cn2nc(-c3ccc(Cl)cc3)n(C[C@H](O)C(F)(F)F)c2=O)n1` [Example 105], in assay [1], the pIC50 is 6.89 and the “ratio IC50 hV2/hV1a” value was determined as 8.5. Besides, the pIC50 in assay [2] is 5.96.

As to `Cn1nccc1C(=O)Nc1ncccc1-n1cnc(Cn2nc(-c3ccc(Cl)cc3)n(C[C@H](O)C(F)(F)F)c2=O)n1` [Example 106], the results for the pIC50 in assay [1] and in assay [2] were 8.63 and 5.92, respectively. In addition, the “ratio IC50 hV2/hV1a” value in assay [1] was determined as 510.6.

With `Cc1cccc(C(=O)Nc2ncccc2-n2cnc(Cn3nc(-c4ccc(Cl)cc4)n(C[C@H](O)C(F)(F)F)c3=O)n2)n1` [Example 107], in assay [1], the pIC50 is 8.25 and the “ratio IC50 hV2/hV1a” value worked out at 125.7. Also, the pIC50 in assay [2] was 6.15.

With `Cc1nc(C(=O)Nc2ncccc2-n2cnc(Cn3nc(-c4ccc(Cl)cc4)n(C[C@H](O)C(F)(F)F)c3=O)n2)no1` [Example 108], in assay [1], the pIC50 was 7.50 and the “ratio IC50 hV2/hV1a” value came to 22.2. Besides, the pIC50 in assay [2] is 6.15.

As for `CN1CCC(C(=O)Nc2ncccc2-n2cnc(Cn3nc(-c4ccc(Cl)cc4)n(C[C@H](O)C(F)(F)F)c3=O)n2)CC1` [Example 109], in assay [1], the pIC50 was 6.94 and the “ratio IC50 hV2/hV1a” value was determined as 58.7. Besides, the pIC50 in assay [2] was 5.17.

For the compound `CCn1ccc(C(=O)Nc2ncccc2-n2cnc(Cn3nc(-c4ccc(Cl)cc4)n(C[C@H](O)C(F)(F)F)c3=O)n2)n1` [Example 110], in assay [1], the pIC50 was 8.20 and the “ratio IC50 hV2/hV1a” value was 83.3. Further, the pIC50 in assay [2] is 6.28.

On to `CCn1nccc1C(=O)Nc1ncccc1-n1cnc(Cn2nc(-c3ccc(Cl)cc3)n(C[C@H](O)C(F)(F)F)c2=O)n1` [Example 111], for which the pIC50 in assay [1] is 8.33; in assay [2] it was 5.89. Also, the “ratio IC50 hV2/hV1a” value in assay [1] stood at 276.6.

With `CCn1cc(C(=O)Nc2ncccc2-n2cnc(Cn3nc(-c4ccc(Cl)cc4)n(C[C@H](O)C(F)(F)F)c3=O)n2)cn1` [Example 112], in assay [1], the pIC50 was 6.77 and the “ratio IC50 hV2/hV1a” value stood at 388.2. In assay [2], the pIC50 was 4.18.

For the compound `CC1(C(=O)Nc2ncccc2-n2cnc(Cn3nc(-c4ccc(Cl)cc4)n(C[C@H](O)C(F)(F)F)c3=O)n2)CCCCC1` [Example 113], in assay [1], the pIC50 was 7.04 and the “ratio IC50 hV2/hV1a” value turned out to be 9.2. Further, in assay [2], the pIC50 is 6.08.

For the compound `CC1CC1C(=O)Nc1ncccc1-n1cnc(Cn2nc(-c3ccc(Cl)cc3)n(C[C@H](O)C(F)(F)F)c2=O)n1` (stereo partly drawn) [Example 114], in assay [1], the pIC50 is 7.72 and the “ratio IC50 hV2/hV1a” value is given as 12.6. Also, the pIC50 in assay [2] is 6.62.

In the case of `O=C(Nc1ncccc1-n1cnc(Cn2nc(-c3ccc(Cl)cc3)n(C[C@H](O)C(F)(F)F)c2=O)n1)C1CCC1` [Example 115], in assay [1], the pIC50 was 7.51 and the “ratio IC50 hV2/hV1a” value amounted to 15.8. Moreover, in assay [2], the pIC50 is 6.31.

`O=C(Nc1ncccc1-n1cnc(Cn2nc(-c3ccc(Cl)cc3)n(C[C@H](O)C(F)(F)F)c2=O)n1)c1ccccc1F` [Example 116]: in assay [1], the pIC50 was 7.11 and the “ratio IC50 hV2/hV1a” value is given as 14.7. Moreover, the pIC50 in assay [2] was 5.94.

On to `CC(C)(C)C(=O)Nc1ncccc1-n1cnc(Cn2nc(-c3ccc(Cl)cc3)n(C[C@H](O)C(F)(F)F)c2=O)n1` [Example 117], for which, in assay [1], the pIC50 is 7.18 and the “ratio IC50 hV2/hV1a” value amounted to 16.0. Also, the pIC50 in assay [2] is 5.98.

Take `CC1(C(=O)Nc2ncccc2-n2cnc(Cn3nc(-c4ccc(Cl)cc4)n(C[C@H](O)C(F)(F)F)c3=O)n2)COC1` [Example 118]: in assay [1], the pIC50 is 6.85 and the “ratio IC50 hV2/hV1a” value is 8.2. Moreover, in assay [2], the pIC50 was 5.94.

`CC[C@H](C)C(=O)Nc1ncccc1-n1cnc(Cn2nc(-c3ccc(Cl)cc3)n(C[C@H](O)C(F)(F)F)c2=O)n1` [Example 119]: the pIC50 in assay [1] was 7.46; in assay [2] it was 6.57. In addition, in assay [1], the “ratio IC50 hV2/hV1a” value is recorded as 7.7.

As to `CCC(C)(O)C(=O)Nc1ncccc1-n1cnc(Cn2nc(-c3ccc(Cl)cc3)n(C[C@H](O)C(F)(F)F)c2=O)n1` (stereo partly drawn) [Example 120], in assay [1], the pIC50 is 7.57 and the “ratio IC50 hV2/hV1a” value is on record as 15.7. Further, the pIC50 in assay [2] is 6.37.

In the case of `O=C(Nc1ncccc1-n1cnc(Cn2nc(-c3ccc(Cl)cc3)n(C[C@H](O)C(F)(F)F)c2=O)n1)c1ccc(F)cc1` [Example 121], in assay [1], the pIC50 was 7.28 and the “ratio IC50 hV2/hV1a” value is listed as 28.8. In addition, the pIC50 in assay [2] is 5.82.

On to `Cc1ccccc1C(=O)Nc1ncccc1-n1cnc(Cn2nc(-c3ccc(Cl)cc3)n(C[C@H](O)C(F)(F)F)c2=O)n1` [Example 122], for which the pIC50 was 6.92 in assay [1] and 5.78 in assay [2]. Besides, the “ratio IC50 hV2/hV1a” value in assay [1] came to 13.8.

`Cc1ccc(C(=O)Nc2ncccc2-n2cnc(Cn3nc(-c4ccc(Cl)cc4)n(C[C@H](O)C(F)(F)F)c3=O)n2)cc1` [Example 123]: in assay [1], the pIC50 is 6.98 and the “ratio IC50 hV2/hV1a” value is 21.9. Also, the pIC50 in assay [2] is 5.64.

Turning to `Cc1n[nH]c(C)c1C(=O)Nc1ncccc1-n1cnc(Cn2nc(-c3ccc(Cl)cc3)n(C[C@H](O)C(F)(F)F)c2=O)n1` [Example 124], in assay [1], the pIC50 is 6.50 and the “ratio IC50 hV2/hV1a” value stood at 12.1. Besides, the pIC50 in assay [2] is 5.42.

On to `NC(=O)C1(C(=O)Nc2ncccc2-n2cnc(Cn3nc(-c4ccc(Cl)cc4)n(C[C@H](O)C(F)(F)F)c3=O)n2)CC1` [Example 125], for which, in assay [1], the pIC50 was 7.53 and the “ratio IC50 hV2/hV1a” value worked out at 12.2. Further, in assay [2], the pIC50 was 6.44.

Turning to `CC[C@@H](C)C(=O)Nc1ncccc1-n1cnc(Cn2nc(-c3ccc(Cl)cc3)n(C[C@H](O)C(F)(F)F)c2=O)n1` [Example 126], in assay [1], the pIC50 is 7.44 and the “ratio IC50 hV2/hV1a” value was 6.9. Besides, the pIC50 in assay [2] was 6.60.

`Cc1ccn(CC(=O)Nc2ncccc2-n2cnc(Cn3nc(-c4ccc(Cl)cc4)n(C[C@H](O)C(F)(F)F)c3=O)n2)n1` [Example 127]: in assay [1], the pIC50 is 6.80 and the “ratio IC50 hV2/hV1a” value came to 6.6. Moreover, the pIC50 in assay [2] is 5.98.

For the compound `Cc1nnsc1C(=O)Nc1ncccc1-n1cnc(Cn2nc(-c3ccc(Cl)cc3)n(C[C@H](O)C(F)(F)F)c2=O)n1` [Example 128], the pIC50 in assay [1] is 7.87; in assay [2], 5.82. The “ratio IC50 hV2/hV1a” value in assay [1] was 111.1.

Consider `Cc1cc(C(=O)Nc2ncccc2-n2cnc(Cn3nc(-c4ccc(Cl)cc4)n(C[C@H](O)C(F)(F)F)c3=O)n2)nn1C` [Example 129], for which, in assay [1], the pIC50 was 6.17 and the “ratio IC50 hV2/hV1a” value was 5.4. Moreover, in assay [2], the pIC50 is 5.44.

With `Cc1[nH]ncc1C(=O)Nc1ncccc1-n1cnc(Cn2nc(-c3ccc(Cl)cc3)n(C[C@H](O)C(F)(F)F)c2=O)n1` [Example 130], in assay [1], the pIC50 was 6.72 and the “ratio IC50 hV2/hV1a” value is 23.9. In addition, in assay [2], the pIC50 was 5.35.

On to `CC(C(=O)Nc1ncccc1-n1cnc(Cn2nc(-c3ccc(Cl)cc3)n(C[C@H](O)C(F)(F)F)c2=O)n1)n1ccnc1` (stereo partly drawn) [Example 131], for which, in assay [1], the pIC50 was 7.90 and the “ratio IC50 hV2/hV1a” value is 156.0. The pIC50 in assay [2] is 5.71.

Consider `Cn1cncc1C(=O)Nc1ncccc1-n1cnc(Cn2nc(-c3ccc(Cl)cc3)n(C[C@H](O)C(F)(F)F)c2=O)n1` [Example 132], for which the pIC50 in assay [1] is 7.34; in assay [2] it was 5.29. The “ratio IC50 hV2/hV1a” value in assay [1] is given as 113.2.

As for `Cc1nonc1C(=O)Nc1ncccc1-n1cnc(Cn2nc(-c3ccc(Cl)cc3)n(C[C@H](O)C(F)(F)F)c2=O)n1` [Example 133], in assay [1], the pIC50 is 8.31 and the “ratio IC50 hV2/hV1a” value was found to be 295.9. In addition, the pIC50 in assay [2] is 5.84.

`O=C(Nc1ncccc1-n1cnc(Cn2nc(-c3ccc(Cl)cc3)n(C[C@H](O)C(F)(F)F)c2=O)n1)C1CCOCC1` [Example 134]: in assay [1], the pIC50 is 6.93 and the “ratio IC50 hV2/hV1a” value was 10.7. In addition, in assay [2], the pIC50 is 5.90.

Take `Cc1cc(CC(=O)Nc2ncccc2-n2cnc(Cn3nc(-c4ccc(Cl)cc4)n(C[C@H](O)C(F)(F)F)c3=O)n2)on1` [Example 135]: in assay [1], the pIC50 was 7.18 and the “ratio IC50 hV2/hV1a” value stood at 14.0. For the same compound, the pIC50 in assay [2] was 6.03.

Consider `O=C(CC1CCC1)Nc1ncccc1-n1cnc(Cn2nc(-c3ccc(Cl)cc3)n(C[C@H](O)C(F)(F)F)c2=O)n1` [Example 136], for which, in assay [1], the pIC50 is 7.63 and the “ratio IC50 hV2/hV1a” value is on record as 14.5. For the same compound, the pIC50 in assay [2] is 6.47.

For the compound `COC(C)(C)C(=O)Nc1ncccc1-n1cnc(Cn2nc(-c3ccc(Cl)cc3)n(C[C@H](O)C(F)(F)F)c2=O)n1` [Example 137], in assay [1], the pIC50 was 6.84 and the “ratio IC50 hV2/hV1a” value is listed as 9.2. Also, the pIC50 in assay [2] was 5.87.

`Cc1nonc1CC(=O)Nc1ncccc1-n1cnc(Cn2nc(-c3ccc(Cl)cc3)n(C[C@H](O)C(F)(F)F)c2=O)n1` [Example 138]: the results for the pIC50 in assay [1] and in assay [2] were 7.41 and 5.63, respectively. Moreover, the “ratio IC50 hV2/hV1a” value in assay [1] was found to be 61.0.

In the case of `CCc1cc(C(=O)Nc2ncccc2-n2cnc(Cn3nc(-c4ccc(Cl)cc4)n(C[C@H](O)C(F)(F)F)c3=O)n2)no1` [Example 139], in assay [1], the pIC50 is 7.69 and the “ratio IC50 hV2/hV1a” value worked out at 22.7. Further, the pIC50 in assay [2] is 6.33.

With `CCc1cc(C(=O)Nc2ncccc2-n2cnc(Cn3nc(-c4ccc(Cl)cc4)n(C[C@H](O)C(F)(F)F)c3=O)n2)on1` [Example 140], in assay [1], the pIC50 is 7.47 and the “ratio IC50 hV2/hV1a” value was determined as 30.0. Further, the pIC50 in assay [2] is 6.00.

(Values after patent publication US11173151B2, “Substituted triazole derivatives and uses thereof” (BAYER AKTIENGESELLSCHAFT, priority 2017, dated 2021).)
